Reference: patent US10202604B2, “Methods of using microRNA-141” (Stemirna Therapeutics Co., Ltd., priority 2016, dated 2019)

How the values were obtained:
prostate cancer tumors = experiment: Ki-67+ cells in miR-141-overexpressing tumors; format: in vivo
bulk Du145 cells = experiment: In vivo tumor regeneration assay; set-up: species or system NOD/SCID mice; settings: miR-141 over-expression in bulk cells; 100,000 cells per injection
Experimental: (§1) Average % of CD44^+ cells (as determined by flow analysis; n=3-5) is indicated for each cell type (UD, undetectable). […] Purified CD44^+ Du145 cells were transfected with NC or miR-141 oligos (30 nM, 48 h) and then plated for clonal (1D & 1E) and sphere (1F) assays. Bars represent mean±SD. *, P<0.05; **, P<0.01. […] Shown are tumor images, cell numbers injected (100,000 cells per injection for all models), site of injection (s.c, subcutaneously) and days (d) when tumors were harvested. Tumor weight and incidences with corresponding P values are also indicated. ns, not significant. […] Purified CD44^+ HPCa202 cells were infected with Lenti-ctl or Lenti-141 (MOI 10, 72 h) and plated for clonal assay (1K) or sphere assays in Matrigel (1L & 1M). For 1st generation (1°) sphere assays, 1,000 cells per well were plated in triplicate for each group in 12-well plate and results scored in 11 days. For 2nd generation (2°), the 1° spheres were harvested, digested with Collagenase and Trypsin into single cells, 1,000 cells/well were plated, and results scored in 10 days. Quantification of the colonies was plotted (1 L; **P<0.01).
(§2) Du145, LNCaP, PC3, PPC-1, VCaP cells were obtained from […] and cultured in RPMI-1640 (Life Technologies, Carlsbad, Calif.) plus 7% fetal bovine serum (FBS) with the exception of VCaP, which were cultured in Dulbecco's Modified Eagles Medium (DMEM, Life Technologies) supplemented with 15% fetal bovine serum. Human xenograft prostate tumors, LAPC9 [bone metastasis; positive for androgen receptor (AR) and prostate-specific antigen (PSA)], LAPC4 (lymph node metastasis; AR+ and PSA+), and Du145 ([…]; AR− and PSA−) were maintained in NOD/SCID mice. These cell and xenograft lines, which have been routinely utilized (13, 14, 18, 20, 21, 23, 25, 33) and authenticated by institutional CCSG Cell Line Characterization Core using short tandem repeat (STR) analysis and checked to be free of mycoplasma contamination using the Agilent (Santa Clara, Calif.) MycoSensor QPCR Assay Kit (cat.#302107). NOD/SCID mice were produced mostly from breeding colonies with occasional purchases from the Jackson Laboratories and maintained in standard conditions according to the Institutional Guidelines. All animal experiments were approved by Institutional Animal Care and Use Committee.
(§3) As the CD44^+ prostate cancer cells are prominently devoid of miR-141, its expression in CD44^+ prostate cancer cells was restored and then cancer stem cell assays including stringent clonal (holoclone) and single cell-derived sphere-formation assays (13, 14, 23, 25, 33) were performed. […]

CD44+ LAPC9 cells = experiment: In vivo tumor regeneration assay; set-up: species or system NOD/SCID mice; settings: enforced miR-141 expression; 100,000 cells per injection
Experimental: as §1, §2, §3

PPC-1 cells = experiment: In vivo tumor regeneration assay; set-up: species or system NOD/SCID mice; settings: miR-141 over-expression in bulk cells; 100,000 cells per injection
Experimental: as §1, §2, §3

CD44+ Du145 cells = experiment: In vivo tumor regeneration assay; set-up: species or system NOD/SCID mice; settings: enforced miR-141 expression; 100,000 cells per injection
Experimental: as §1, §2, §3

[1] = tested on: RAC1, CDC42, ARPC5 and CDC42EP3; experiment: Western blotting of Rho GTPase signaling members; format: cell-based, human; settings: Du145 cells, miR-141 over-expression
Experimental: Du145 cells transfected with NC or miR-141 oligos at the two doses and time intervals indicated were used in Western blotting. Indicated below are relative expression levels (normalized to respective GAPDH and compared to NC) of each protein determined by densitometric scanning of the individual bands. […] Bars, mean±SD. *P<0.05; **P<0.01. […] Du145 cells were co-transfected with NC or miR-141 oligos (30 nM) in combination with pcDNA3.1 (control) vector or pcDNA-RAC1 or pcDNA-CDC42 expression vector. After 48 h, cells were harvested for invasion assays. […] Du145 cells were infected with Lenti-141 or control lentivirus (MOI 10, 48 h) and then harvested to measure the Rho GTPase activities. Bars, mean±SD. *P<0.05. […] Du145 cells were transfected with the antisense oligos to NC or miR-141 (anti-141; 30 nM) and then used in invasion assays (FIG. 5E). In FIG. 5F and FIG. 5G Du145 cells were transfected with 10 nM of scramble siRNA control (siCon) or siRNAs targeting RAC1 (FIG. 5F) or CDC42 (FIG. 5G), either alone or in combination of anti-141 (30 nM). 48 h later, cells were harvested for invasion assays. Bars, mean±SD. *P<0.05; **P<0.01.

Question: What does the source list for “miR-141: miR-141 mirVana mimics (Life Technologies); microRNA-141 oligonucleotide may have SEQ ID NO: 1; in some experiments over-expressed by lentiviral vectors (UAACACUGUCUGGUAAAGAUGG; listed as RNA, further chemistry not given here) [miR-141 mirVana mimics (Life Technologies); in some experiments over-expressed by lentiviral vectors]”?
Answer: Ki-67+ cells (prostate cancer tumors): reduced; tumor regeneration (bulk Du145 cells): suppressed tumor regeneration; tumor growth and/or tumor incidence (CD44+ LAPC9 cells): significantly suppressed tumor growth and/or reduced tumor incidence; tumor regeneration (PPC-1 cells): suppressed tumor regeneration; tumor growth and/or tumor incidence (CD44+ Du145 cells): significantly suppressed tumor growth and/or reduced tumor incidence; protein levels of ARPC5, CDC42EP3, CDC42 and RAC1 [1]: downregulated, to varying degrees
